Reference: the CheMixHub viscosity set
“And” between values parts separate entries of the source, which are not always exact repeats. Equal values may be shown once.

Test: xn = mol fraction of the nth substance listed

COCc1ccccc1 + CCCCCOC(C)=O
Details | viscosity [mPa·s]
298.15 K, 101 kPa, x2 = 0.5 | 0.8479

CNC(C)=O + CCCCN
308.15 K, 101 kPa
Details | viscosity [mPa·s]
x1 = 0.0335 | 0.414
x1 = 0.1849 | 0.5985
x1 = 0.3822 | 0.9135
x1 = 0.4385 | 1.049
x1 = 0.5671 | 1.387
x1 = 0.6888 | 1.829
x1 = 0.7756 | 2.15
x1 = 0.8792 | 2.675
x1 = 0.9781 | 3.172

Oc1ccc(Cl)cc1 + CCCCN(CCCC)CCCC
298.16 K, 101 kPa
Details | viscosity [mPa·s]
x1 = 0.5057 | 14.04
x1 = 0.5498 | 23.8
x1 = 0.6004 | 46.15
x1 = 0.6534 | 94.2
x1 = 0.7034 | 222.8
x1 = 0.714 | 261.7
x1 = 0.7471 | 389.7
x1 = 0.7798 | 438.6
x1 = 0.8047 | 424.7
x1 = 0.8194 | 339.1
x1 = 0.8508 | 228.2
x1 = 0.8615 | 173.1
x1 = 0.88 | 141.3
x1 = 0.9041 | 99.6
x1 = 0.915 | 73.06
x1 = 0.9457 | 46.28
x1 = 0.9798 | 26.23
x2 = 0.002811 | 19.56

Oc1ccc(Cl)cc1 + CCCCNCCCC
298.16 K, 101 kPa
Details | viscosity [mPa·s]
x1 = 0.4053 | 3.541
x1 = 0.5045 | 11.99
x1 = 0.5585 | 31.68
x1 = 0.6051 | 56.94
x1 = 0.6526 | 126.7
x1 = 0.6871 | 181.4
x1 = 0.7235 | 251.1
x1 = 0.7533 | 273.6
x1 = 0.7813 | 263
x1 = 0.8104 | 221
x1 = 0.84 | 163.2
x1 = 0.8686 | 111.1
x1 = 0.8961 | 79.37
x1 = 0.9256 | 53.62
x1 = 0.9749 | 26.85

CC(C)CCO + CCCCO
298.15 K, 101 kPa
Details | viscosity [mPa·s]
x2 = 0.1033 | 3.62
x2 = 0.204 | 3.472
x2 = 0.2977 | 3.343
x2 = 0.4026 | 3.211
x2 = 0.5005 | 3.093
x2 = 0.6046 | 2.972
x2 = 0.6996 | 2.851
x2 = 0.8015 | 2.746
x2 = 0.9172 | 2.615

CCOCCO + CCCCO
viscosity [mPa·s]
Details | 298.15 K | 303.15 K | 308.15 K | 313.15 K
101 kPa, x1 = 0.0837 | 2.434 | – | – | –
101 kPa, x1 = 0.1706 | 2.312 | – | – | –
101 kPa, x1 = 0.2606 | 2.206 | – | – | –
101 kPa, x1 = 0.3541 | 2.113 | – | – | –
101 kPa, x1 = 0.4513 | 2.035 | – | – | –
101 kPa, x1 = 0.5523 | 1.984 | – | – | –
101 kPa, x1 = 0.6574 | 1.949 | – | – | –
101 kPa, x1 = 0.7669 | 1.925 | – | – | –
101 kPa, x1 = 0.881 | 1.902 | – | – | –
101.33 kPa, x1 = 0.1017 | 2.284 | 1.999 | 1.771 | 1.565
101.33 kPa, x1 = 0.2007 | 2.13 | 1.887 | 1.671 | 1.49
101.33 kPa, x1 = 0.2996 | 2.015 | 1.787 | 1.589 | 1.42
101.33 kPa, x1 = 0.4028 | 1.958 | 1.731 | 1.546 | 1.378
101.33 kPa, x1 = 0.5032 | 1.891 | 1.677 | 1.499 | 1.34
101.33 kPa, x1 = 0.6036 | 1.86 | 1.656 | 1.48 | 1.331
101.33 kPa, x1 = 0.6986 | 1.838 | 1.634 | 1.462 | 1.31
101.33 kPa, x1 = 0.8029 | 1.829 | 1.63 | 1.458 | 1.314
101.33 kPa, x1 = 0.9 | 1.822 | 1.629 | 1.462 | 1.309

CNC(C)=O + CCCCO
303.15 K, 101 kPa
Details | viscosity [mPa·s]
x1 = 0.0988 | 2.32
x1 = 0.2013 | 2.369
x1 = 0.2993 | 2.428
x1 = 0.3951 | 2.525
x1 = 0.4945 | 2.651
x1 = 0.5957 | 2.82
x1 = 0.6947 | 3.015
x1 = 0.8011 | 3.259
x1 = 0.8918 | 3.503

Cc1ccc([S@@](=O)O[C@@H]2C[C@H](C)CC[C@H]2C(C)C)cc1 + CCCCO
298 K, 101.3 kPa
Details | viscosity [mPa·s]
x1 = 0.00223 | 2.53
x1 = 0.0043 | 2.548
x1 = 0.00647 | 2.573
x1 = 0.0087 | 2.586
x1 = 0.01163 | 2.628

CC(C)CCO + CCCCOC(C)=O
308 K, 101 kPa
Details | viscosity [mPa·s]
x2 = 0.0998 | 2.631
x2 = 0.2003 | 2.091
x2 = 0.3001 | 1.715
x2 = 0.3999 | 1.418
x2 = 0.4998 | 1.221
x2 = 0.5999 | 1.019
x2 = 0.6997 | 0.917
x2 = 0.8002 | 0.811
x2 = 0.9002 | 0.734

CCOCCO + CCCCOC(C)=O
298.15 K, 101 kPa
Details | viscosity [mPa·s]
x1 = 0.0826 | 0.6948
x1 = 0.1249 | 0.7087
x1 = 0.1454 | 0.7178
x1 = 0.2182 | 0.7512
x1 = 0.3951 | 0.8537
x1 = 0.4691 | 0.9144
x1 = 0.502 | 0.9435
x1 = 0.5174 | 0.9569
x1 = 0.5604 | 0.9991
x1 = 0.6488 | 1.101
x1 = 0.7547 | 1.258
x1 = 0.7674 | 1.276
x1 = 0.7794 | 1.296
x1 = 0.9079 | 1.564
x1 = 0.9531 | 1.676
x1 = 0.9678 | 1.72

CNCCO + CCCCOCCO
viscosity, 101.3 kPa
Details | 293.15 K | 298.15 K | 303.15 K | 308.15 K | 313.15 K | 318.15 K | 323.15 K
x1 = 0.149 | 4.016 mPa·s | 3.469 mPa·s | 3.02 mPa·s | 2.649 mPa·s | 2.339 mPa·s | 2.077 mPa·s | 1.856 mPa·s
x1 = 0.403 | 5.748 mPa·s | 4.862 mPa·s | 4.158 mPa·s | 3.584 mPa·s | 3.112 mPa·s | 2.725 mPa·s | 2.401 mPa·s
x1 = 0.512 | 6.672 mPa·s and 6.73 mPa·s | 5.591 mPa·s and 5.64 mPa·s | 4.739 mPa·s and 4.78 mPa·s | 4.054 mPa·s and 4.09 mPa·s | 3.5 mPa·s and 3.53 mPa·s | 3.045 mPa·s and 3.07 mPa·s | 2.667 mPa·s and 2.69 mPa·s
x1 = 0.611 | 7.632 mPa·s | 6.341 mPa·s | 5.331 mPa·s | 4.528 mPa·s | 3.883 mPa·s | 3.358 mPa·s | 2.926 mPa·s
x1 = 0.702 | 8.54 mPa·s | 7.04 mPa·s | 5.87 mPa·s | 4.95 mPa·s | 4.22 mPa·s | 3.63 mPa·s | 3.15 mPa·s
x1 = 0.786 | 9.713 mPa·s | 7.929 mPa·s | 6.563 mPa·s | 5.498 mPa·s | 4.657 mPa·s | 3.983 mPa·s | 3.436 mPa·s
x1 = 0.934 | 12.07 mPa·s | 9.674 mPa·s | 7.893 mPa·s | 6.525 mPa·s | 5.461 mPa·s | 4.621 mPa·s | 3.948 mPa·s

CNC(C)=O + CCCCn1cc[n+](C)c1.F[B-](F)(F)F
101 kPa
Details | viscosity [mPa·s]
293.15 K, x2 = 0.8495 | 82.55
308.15 K, x2 = 0.714 | 24.65

CCOCCO + CCCO
viscosity [mPa·s]
Details | 298.15 K | 303.15 K | 308.15 K | 313.15 K
101 kPa, x1 = 0.069 | 1.942 | – | – | –
101 kPa, x1 = 0.1429 | 1.891 | – | – | –
101 kPa, x1 = 0.2223 | 1.852 | – | – | –
101 kPa, x1 = 0.3078 | 1.826 | – | – | –
101 kPa, x1 = 0.4001 | 1.811 | – | – | –
101 kPa, x1 = 0.5001 | 1.806 | – | – | –
101 kPa, x1 = 0.6088 | 1.81 | – | – | –
101 kPa, x1 = 0.7273 | 1.823 | – | – | –
101 kPa, x1 = 0.8572 | 1.839 | – | – | –
101.33 kPa, x1 = 0.0969 | 1.815 | 1.607 | 1.431 | 1.272
101.33 kPa, x1 = 0.199 | 1.761 | 1.56 | 1.395 | 1.244
101.33 kPa, x1 = 0.2917 | 1.73 | 1.542 | 1.376 | 1.235
101.33 kPa, x1 = 0.3971 | 1.659 | 1.482 | 1.326 | 1.178
101.33 kPa, x1 = 0.4928 | 1.711 | 1.521 | 1.366 | 1.223
101.33 kPa, x1 = 0.5933 | 1.721 | 1.531 | 1.377 | 1.233
101.33 kPa, x1 = 0.6923 | 1.732 | 1.546 | 1.386 | 1.232
101.33 kPa, x1 = 0.7987 | 1.754 | 1.567 | 1.403 | 1.265
101.33 kPa, x1 = 0.8853 | 1.774 | 1.578 | 1.418 | 1.402

CNC(C)=O + CCCO
303.15 K, 101 kPa
Details | viscosity [mPa·s]
x1 = 0.1069 | 1.816
x1 = 0.1939 | 1.891
x1 = 0.3142 | 2.033
x1 = 0.3918 | 2.142
x1 = 0.4791 | 2.289
x1 = 0.5976 | 2.537
x1 = 0.6966 | 2.785
x1 = 0.7922 | 3.066
x1 = 0.9015 | 3.443
